According to patent US20240239811A1, “5-(5-(PIPERIDIN-4-YL)THIENO[3,2-C]PYRAZOL-2-YL]INDAZOLE DERIVATIVES AND RELATED COMPOUNDS AS MODULATORS FOR SPLICING NUCLEIC ACIDS AND FOR THE T” (REMIX THERAPEUTICS INC., priority 2020, published 2024):
Counter-ions that a name gives are not always drawn.

Assays:
Assay type in all cases: cell-based
[1] = system: HTT CJ mRNA; experiment: Gene panel canonical junction qPCR assay, HTT; conditions: Table 6, decrease in CJ mRNA, read-out: HTT IC50 (decrease in CJ mRNA levels)
Procedure: (§1) Compounds described herein were used to modulate RNA transcript abundance in cells. The expression of a target mRNA was measured by detecting the formation of an exon-exon junction in the canonical transcript (CJ). A compound mediated exon-inclusion event was detected by observing an increase in formation of a new junction with an alternative exon (AJ). Real-time qPCR assays were used to detect these splicing switches and interrogate the potency of various compounds towards different target genes. A high-throughput real time quantitative PCR (RT-qPCR) assay was developed to measure these two isoforms of the mRNA (CJ and AJ) for an exemplary gene, HTT, together with a control housekeeping gene, GAPDH or GUSB or PPIA, used for normalization. Briefly, the A673 or K562 cell line was treated with various compounds described herein (e.g., compounds of Formula (I)). After treatment, the levels of the HTT mRNA targets were determined from each sample of cell lysate by cDNA synthesis followed by qPCR.
(§2) The A673 cell line was cultured in DMEM with 10% FBS. Cells were diluted with full growth media and plated in a 96-well plate (15,000 cells in 100ul media per well). The plate was incubated at 37° C. with 5% CO2 for 24 hours to allow cells to adhere. An 11-point 3-fold serial dilution of the compounds was made in DMSO then diluted in media in an intermediate plate. Compounds were transferred from the intermediate plate to the cell plate with the top dose at a final concentration of 10 uM in the well. Final DMSO concentration was kept at or below 0.25%. The cell plate was returned to the incubator at 37° C. with 5% CO2 for an additional 24 hours.
(§3) The K562 cell line was cultured in IMDM with 10% FBS. For K562, cells were diluted with full growth media and plated in either a 96-well plate (50,000 cells in 50 uL media per well) or a 384-well plate (8,000-40,000 cells in 45 uL media per well). An 11-point 3-fold serial dilution of the compounds were made in DMSO then diluted in media in an intermediate plate. Compound was transferred from the intermediate plate to the cell plate with the top dose at a final concentration of 10 uM in the well. Final DMSO concentration was kept at or below 0.25%. Final volume was 100 uL for 96-well plate and 50 uL for 384-well plate. The cell plate was then placed in an incubator at 37° C. with 5% CO2 for 24 hours.
(§4) The data analysis was performed by first determining the ΔCt vs the housekeeper gene. This ΔCt was then normalized against the DMSO control (ΔΔCt) and converted to RQ (relative quantification) using the 2^(−ΔΔCt) equation. The RQ were then converted to a percentage response by arbitrarily setting an assay window of 3.5 ΔCt for HTT-CJ and an assay window of 9 ΔCt for HTT-AJ. […] The percentage response was then fitted to the 4 parametric logistic equation to evaluate the concentration dependence of compound treatment. The increase in AJ mRNA is reported as AC50 (compound concentration having 50% response in AJ increase) while the decrease in CJ mRNA levels is reported as IC50 (compound concentration having 50% response in CJ decrease).
(§5) Additional studies were carried out for a larger panel of genes using the protocol provided above. The junction between flanking upstream and downstream exons was used to design canonical junction qPCR assays. At least one of the forward primer, reverse primer or the CY5-labeled 5′ nuclease probe (with 3′ quencher such as ZEN/Iowa Black FQ) was designed to overlap with the exon junction to capture the CJ mRNA transcript. BLAST was used to confirm the specificity of the probeset and parameters such as melting temperature, GC content, amplicon size, and primer dimer formation are considered during their design. Data for the decrease in CJ mRNA levels for three exemplary genes (HTT, SMN2, and Target C) analyzed in this panel are reported as IC50 (compound concentration having […] in CJ decrease).

[2] = system: SMN2 CJ mRNA; experiment: Gene panel canonical junction qPCR assay, SMN2; conditions: Table 6, decrease in CJ mRNA, read-out: SMN2 IC50 (decrease in CJ mRNA levels)
Procedure: as §1, §2, §3, §4, §5

[3] = system: HTT mRNA; experiment: Splicing assay (RT-qPCR) monitoring HTT splice variants, canonical (CJ) and alternative (AJ) junction; conditions: 50% response, A673 or K562 cell line, 24 hours; for IC50: decrease in CJ mRNA; for AC50: increase in AJ mRNA
Procedure: as §1
• Cells-to-CT 1-step kit: ThermoFisher A25602, Cells-to-CT lysis reagent: ThermoFisher 4391851C, TaqMan™ Fast Virus 1-Step Master Mix: ThermoFisher 4444436 • GAPDH: VIC-PL, ThermoFisher 4326317E (Assay: Hs99999905_ml)—used for K562/suspension cell lines • GUSB: VIC-PL, ThermoFisher 4326320E (Assay: Hs99999908_ml)—used for K562/suspension cell lines • PPIA: VIC-PL, ThermoFisher 4326316E (Assay: Hs99999904_ml)—used for A673/adherent cell lines
as §2, §3
The cells were then gently washed with 50 uL-100 uL cold PBS before proceeding to addition of lysis buffer. 30 uL-50 uL of room temperature lysis buffer with DNAse I (and optionally RNAsin) was added to each well. Cells were shaken/mixed thoroughly at room temperature for 5-10 minutes for lysis to take place and then 3 uL-5 uL of room temperature stop solution was added and wells were shaken/mixed again. After 2-5 minutes, the cell lysate plate was transferred to ice for RT-qPCR reaction setup. The lysates could also be frozen at −80° C. for later use.
In some cases, a direct lysis buffer was used. An appropriate volume of 3X lysis buffer (10 mM Tris, 150 mM NaCl, 1.5%-2.5% Igepal and 0.1-1 U/uL RNAsin, pH 7.4) was directly added to either K562 or A673 cells in media and mixed by pipetting 3 times. The plates were then incubated at room temperature with shaking/rocking for 20-50 minutes to allow for lysis to take place. After this time, the cell lysate plate was transferred to ice to set up for the RT-qPCR reactions. The lysates could also be frozen at −80° C. for later use. […]

[4] = system: Target C CJ mRNA; experiment: Gene panel canonical junction qPCR assay, Target C; conditions: Table 6, decrease in CJ mRNA, read-out: Target C IC50 (decrease in CJ mRNA levels)
Procedure: as §1, §2, §3, §4, §5

SMILES	IC50 [1] [µM]	IC50 [2] [µM]	IC50 [3] [µM]	IC50 [4] [µM]	AC50 [3] [µM]
Cc1cn2nc(-n3cc4sc(C5CCNCC5)cc4n3)nc2c(C)n1 [Compound 170]	1 to 10	1 to 10	1 to 10	1 to 10	1 to 10
Cc1nc2c(F)cc(-c3nc4sc(C5CCNCC5)cc4s3)cc2o1 [Compound 132, 4-fluoro-2-methyl-6-[5-(piperidin-4-yl)thieno[2,3-d][1,3]thiazol-2-yl]-1,3-benzoxazole]	< 0.1	< 0.1	< 0.1	0.1 to 1	< 0.1
Cn1cc2c(F)cc(-c3nc4sc(C5CCNCC5)cc4s3)cc2n1 [Compound 131, 4-fluoro-2-methyl-6-[5-(piperidin-4-yl)thieno[2,3-d][1,3]thiazol-2-yl]indazole]	1 to 10	1 to 10	1 to 10	1 to 10	1 to 10
Cn1cc2cc(-c3cn4nc(C5CCNCC5)nc4s3)cc(F)c2n1 [Compound 102, 7-fluoro-2-methyl-5-[2-(piperidin-4-yl)-[1,2,4]triazolo[3,2-b][1,3]thiazol-5-yl]indazole]	0.1 to 1	< 0.1	0.1 to 1	0.1 to 1	0.1 to 1
Cn1cc2cc(-c3nc4sc(N5CCNCC5)cc4s3)cc(F)c2n1 [Compound 134, 7-fluoro-2-methyl-5-[5-(piperazin-1-yl)thieno[2,3-d][1,3]thiazol-2-yl]indazole]	0.1 to 1	< 0.1	0.1 to 1	0.1 to 1	< 0.1
C[C@@H]1C[C@@H](c2cc3sc(-c4cc(F)c5nn(C)cc5c4)nc3s2)CCN1 [Compound 193, 7-fluoro-2-methyl-5-[5-(2-methylpiperidin-4-yl)thieno[2,3-d][1,3]thiazol-2-yl]indazole]	< 0.1	< 0.1	< 0.1	< 0.1	< 0.1
Cc1cn2nc(-n3cc4cc(C5CCNCC5)sc4n3)nc2c(C)n1 [Compound 163, 4-(2-{6,8-dimethyl-[1,2,4]triazolo [1,5-a]pyrazin-2-yl}thieno[2,3-c]pyrazol-5-yl)piperidine]	1 to 10	1 to 10	1 to 10	1 to 10	1 to 10
Cc1cn2cc(-c3nc4sc(C5CCNCC5)cc4s3)cc(C)c2n1 [Compound 140, 4-(2-[2,8-dimethylimidazo[1,2-a]pyridin-6-yl]thieno[2,3-d][1,3]thiazol-5-yl)piperidine hydrochloride]	< 0.1	< 0.1	< 0.1	0.1 to 1	< 0.1
Cn1cc2cc(-n3cc4sc(C5CCNCC5)cc4n3)cc(F)c2n1 [Compound 105, 7-fluoro-2-methyl-5-[5-(piperidin-4-yl)thieno[3,2-c]pyrazol-2-yl]indazole]	0.1 to 1	0.1 to 1	0.1 to 1	1 to 10	0.1 to 1
Cc1cn2nc(-n3cc4sc(N5CC6(CN(C)C6)C5)cc4n3)cc(C)c2n1 [Compound 188, 2-(2-{2,8-dimethylimidazo[1,2-b]pyridazin-6-yl}thieno [3,2-c]pyrazol-5-yl)-6-methyl-2,6-diazaspiro [3.3] heptane]	0.1 to 1	0.1 to 1	0.1 to 1	1 to 10	1 to 10
Cn1cc2cc(-c3cc4cn(C5CCNCC5)nc4s3)cc(F)c2n1 [Compound 122, 7-fluoro-2-methyl-5-[2-(piperidin-4-yl)thieno[2,3-c]pyrazol-5-yl]indazole]	< 0.1	< 0.1	< 0.1	< 0.1	0.1 to 1

Further lines, with some results ahead:

IC50 [1] [µM]	IC50 [2] [µM]	IC50 [3] [µM]	IC50 [4] [µM]	SMILES	AC50 [3] [µM]
> 10	1 to 10	> 10	> 10	CN1CCCC2(CCN2c2cc3sc(-c4cc(F)c5nn(C)cc5c4)nc3s2)C1 (centres unmarked) [Compound 203, 1-[2-(7-fluoro-2-methylindazol-5-yl)thieno[2,3-d][1,3]thiazol-5-yl]-6-methyl-1,6-diazaspiro[3.5]nonane]	> 10
0.1 to 1	0.1 to 1	0.1 to 1	1 to 10	Cc1cn2nc(-c3nc4sc(C5CCNC5)cc4s3)cc(C)c2n1 (centres unmarked) [Compound 197, 3-(2-{2,8-dimethylimidazo[1,2-b]pyridazin-6-yl}thieno [2,3-d][1,3]thiazol-5-yl)pyrrolidine]	0.1 to 1
< 0.1	< 0.1	< 0.1	0.1 to 1	Cc1cn2cc(-c3cc4cn(C5CCNCC5)nc4s3)cc(C)c2n1 [Compound 216]	< 0.1
< 0.1	< 0.1	< 0.1	0.1 to 1	Cc1cn2cc(-c3cc4cn(C5CCNCC5)nc4s3)cc(Cl)c2n1 [Compound 226]	< 0.1
< 0.1	< 0.1	< 0.1	0.1 to 1	COc1c(-c2cc3cn(C4CCNCC4)nc3s2)cc2cn(C)nc2c1F [Compound 218]	0.1 to 1
1 to 10	0.1 to 1	1 to 10	1 to 10	Cc1cn2cc(-c3cc4cn(C5CCNCC5)nc4s3)ncc2n1 [Compound 223]	1 to 10
1 to 10	< 0.1	1 to 10	1 to 10	Cn1cc2cc(-c3nc4sc(N5CCC6(CCN6)C5)cc4s3)cc(F)c2n1 (centres unmarked) [Compound 233, 5-(5-{1,6-diazaspiro[3.4]octan-6-yl}thieno[2,3-d][1,3]thiazol-2-yl)-7-fluoro-2-methylindazole]	1 to 10
< 0.1	< 0.1	< 0.1	0.1 to 1	Cn1cc2cc(-c3cc4cn(C5CCNCC5)nc4s3)c(F)cc2n1 [Compound 210]	< 0.1
